Results published in US9078909B2, “Tertiary amines, medicaments containing said amines, use thereof and processes for the preparation thereof” (Boehringer Ingelheim International GmbH, priority 2012, dated 2015).

These molecules were tested against T1, epithelial sodium channel (ENaC) (Mus musculus, UniProt Q61180+Q9WU38+Q9WU39) (assay: Ussing Chamber assay: inhibition of amiloride sensitive short circuit current (I_sc) in M-1 cells). Conditions: not given.
T1 construct: Mouse kidney M-1 cells were cultivated in DMEM; endogenous in cells; host or cells: mouse kidney M-1 cells (cortical collecting duct line), dexamethasone-treated, on transwell filters
T1 sequence (Q61180 1-699): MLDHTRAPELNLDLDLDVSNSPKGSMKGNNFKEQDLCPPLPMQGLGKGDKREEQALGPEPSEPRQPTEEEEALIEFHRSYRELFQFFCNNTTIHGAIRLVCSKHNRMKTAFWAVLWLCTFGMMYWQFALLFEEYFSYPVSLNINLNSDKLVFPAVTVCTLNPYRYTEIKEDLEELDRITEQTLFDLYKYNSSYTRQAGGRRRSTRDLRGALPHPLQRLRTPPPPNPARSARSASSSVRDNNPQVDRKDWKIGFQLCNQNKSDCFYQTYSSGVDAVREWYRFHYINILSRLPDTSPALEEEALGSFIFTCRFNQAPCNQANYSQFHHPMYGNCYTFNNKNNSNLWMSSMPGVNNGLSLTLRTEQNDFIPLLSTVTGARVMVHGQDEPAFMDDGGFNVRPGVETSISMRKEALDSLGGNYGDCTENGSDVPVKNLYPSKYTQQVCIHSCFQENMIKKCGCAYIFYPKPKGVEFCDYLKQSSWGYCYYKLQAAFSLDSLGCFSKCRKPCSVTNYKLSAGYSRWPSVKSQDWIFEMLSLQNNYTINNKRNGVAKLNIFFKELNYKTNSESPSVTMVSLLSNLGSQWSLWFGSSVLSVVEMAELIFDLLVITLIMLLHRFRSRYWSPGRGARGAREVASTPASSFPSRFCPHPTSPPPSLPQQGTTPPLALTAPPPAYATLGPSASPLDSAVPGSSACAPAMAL
T1 sequence (Q9WU38 1-638): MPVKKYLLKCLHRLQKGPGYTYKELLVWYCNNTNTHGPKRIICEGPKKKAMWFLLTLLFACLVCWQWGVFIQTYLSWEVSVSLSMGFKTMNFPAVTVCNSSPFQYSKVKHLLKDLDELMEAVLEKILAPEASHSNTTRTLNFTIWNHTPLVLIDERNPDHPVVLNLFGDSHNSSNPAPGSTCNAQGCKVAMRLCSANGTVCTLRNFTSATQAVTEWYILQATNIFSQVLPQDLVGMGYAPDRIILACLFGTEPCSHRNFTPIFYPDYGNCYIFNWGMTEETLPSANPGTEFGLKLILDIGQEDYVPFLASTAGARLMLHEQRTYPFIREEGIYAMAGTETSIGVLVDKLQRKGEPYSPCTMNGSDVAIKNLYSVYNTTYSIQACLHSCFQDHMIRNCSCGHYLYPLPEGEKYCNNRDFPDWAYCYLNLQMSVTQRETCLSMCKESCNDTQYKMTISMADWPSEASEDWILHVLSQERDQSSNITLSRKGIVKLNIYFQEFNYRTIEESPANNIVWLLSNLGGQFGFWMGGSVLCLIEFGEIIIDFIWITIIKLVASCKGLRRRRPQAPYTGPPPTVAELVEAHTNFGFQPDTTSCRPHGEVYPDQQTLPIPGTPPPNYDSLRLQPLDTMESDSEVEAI
T1 sequence (Q9WU39 1-655): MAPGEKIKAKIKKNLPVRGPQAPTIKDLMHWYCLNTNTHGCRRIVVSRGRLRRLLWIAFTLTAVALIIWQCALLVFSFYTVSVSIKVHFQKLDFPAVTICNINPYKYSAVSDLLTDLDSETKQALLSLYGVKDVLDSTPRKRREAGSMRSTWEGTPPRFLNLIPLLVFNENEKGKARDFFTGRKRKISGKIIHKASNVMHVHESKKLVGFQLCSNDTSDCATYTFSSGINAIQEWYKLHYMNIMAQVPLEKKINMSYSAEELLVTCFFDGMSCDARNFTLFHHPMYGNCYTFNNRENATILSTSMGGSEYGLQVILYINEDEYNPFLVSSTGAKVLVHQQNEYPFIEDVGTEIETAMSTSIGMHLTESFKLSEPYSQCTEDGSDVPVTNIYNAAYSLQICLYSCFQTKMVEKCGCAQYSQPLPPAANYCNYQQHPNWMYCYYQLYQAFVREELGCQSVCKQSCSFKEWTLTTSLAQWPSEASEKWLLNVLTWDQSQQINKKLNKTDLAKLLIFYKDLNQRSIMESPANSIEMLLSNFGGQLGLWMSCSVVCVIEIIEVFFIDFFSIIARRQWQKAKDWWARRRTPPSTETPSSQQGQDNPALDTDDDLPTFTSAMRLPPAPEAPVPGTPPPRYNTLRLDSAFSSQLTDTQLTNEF
Format: cell-based
Protocol: Ussing Chamber: Mouse kidney M-1 cells were cultivated in DMEM containing 5% FCS and 5 μM dexamethasone for 10 to 12 days on polyester transwell filters. Filters were inserted into a teflon-coated well-plate which fit into the in-house ussing chamber system. Prior to measurement the medium of M-1 cells was replaced with Caco-2 transport buffer (Invitrogen, Germany). During measurements, the Ussing chamber temperature was kept at 37° C. Short circuit currents (I_sc) were measured in the voltage-clamp mode using an in-house built amplifier (Boehringer Ingelheim, Biberach) with the software package Lab View for data acquisition and analysis. The transepithelial electrical resistance (TEER) was determined by the application of voltage steps of ±5 mV every 5 sec. Compounds were administered at a final concentration of 3 μM or at increasing concentrations (e.g. 1-3-10 μM) to the apical solution. At the end of each experiment the amiloride sensitive I_SC was measured by adding 3 μM amiloride to the apical compartment. Results are expressed as inhibition in percent of the amiloride effect or as IC50.
With the example compounds given above, the following IC50 values were determined in the Ussing Chamber assay: […]

`CCOP(=O)(CN1CCC(NC(N)=NC(=O)c2nc(Cl)c(N)nc2N)CC1)OCC` [Example 4.16] showed an IC50 of 19 nM.

Same assay, conditions: Ussing Chamber; mouse kidney M-1 cells on transwell filters; short circuit current; compound added to apical solution; 37° C.; read-out: IC50

Point of comparison: `CCOC(=O)C(C(=O)OCC)N1CCC(NC(N)=NC(=O)c2nc(Cl)c(N)nc2N)CC1` [Example 4.19], IC50 9 nM. Against it:
- CCN1CCC(NC(N)=NC(=O)c2nc(Cl)c(N)nc2N)CC1 [Example 4.14] — 5.9-fold higher, 53 nM
- CCOC(=O)CNC(=O)CN1CCC(NC(N)=NC(=O)c2nc(Cl)c(N)nc2N)CC1 [Example 4.4] — within 1.5-fold, 11 nM
- NC(=O)c1cccc(CNC(=O)CN2CCC(NC(N)=NC(=O)c3nc(Cl)c(N)nc3N)CC2)c1 [Example 6.9] — within 1.5-fold, 8 nM
- CCN(CC)CCOc1ccc(NC(=O)CN2CCC(NC(N)=NC(=O)c3nc(Cl)c(N)nc3N)CC2)cc1 [Example 1.12] — 4.5-fold lower, 2 nM
- NC(=NC(=O)c1nc(Cl)c(N)nc1N)NC1CCN(CC(=O)N2CCC(C(=O)O)CC2)CC1 [Example 5.4] — 20-fold higher, 176 nM
- CN(C)CCN(c1ccc(NC(=O)CN2CCC(NC(N)=NC(=O)c3nc(Cl)c(N)nc3N)CC2)cc1)S(C)(=O)=O [Example 1.14] — 9-fold lower, 1 nM
- CN(Cc1ccccc1)C(=O)CN1CCC(NC(N)=NC(=O)c2nc(Cl)c(N)nc2N)CC1 [Example 1.21] — 2-fold higher, 18 nM
- NC(=NC(=O)c1nc(Cl)c(N)nc1N)NC1CCN(C(C(=O)NCc2ccccc2)C(=O)NCc2ccccc2)CC1 [Example 4.20] — within 1.5-fold, 10 nM
- COC(=O)Cn1ccc(NC(=O)CN2CCC(NC(N)=NC(=O)c3nc(Cl)c(N)nc3N)CC2)cc1=O [Example 1.16] — 2-fold higher, 18 nM
- CC(C)(C)OC(=O)C1CCN(C(=O)CN2CCC(NC(N)=NC(=O)c3nc(Cl)c(N)nc3N)CC2)CC1 [Example 4.24] — 1.9-fold higher, 17 nM
- NC(=NC(=O)c1nc(Cl)c(N)nc1N)NC1CCN(CC(=O)Nc2cccnc2)CC1 [Example 1.17] — within 1.5-fold, 7 nM
- COC(=O)c1ccccc1NC(=O)CN1CCC(NC(N)=NC(=O)c2nc(Cl)c(N)nc2N)CC1 [Example 1.18] — 30-fold lower, 0.3 nM
- CCN(CC)C(=O)CN1CCC(NC(N)=NC(=O)c2nc(Cl)c(N)nc2N)CC1 [Example 4.5] — 4-fold higher, 36 nM
- COC(=O)CCN1CCC(NC(=N)NC(=O)c2nc(Cl)c(N)nc2N)CC1 [Example 4.1] — 2.1-fold higher, 19 nM
- NC(=NC(=O)c1nc(Cl)c(N)nc1N)NC1CCN(CC(=O)Nc2ccccc2C(=O)O)CC1 [Example 2.3] — 5.2-fold higher, 47 nM
- CC(C)(C)OC(=O)CN1CCC(NC(N)=NC(=O)c2nc(Cl)c(N)nc2N)CC1 [Example 4.18] — 3-fold lower, 3 nM
- NC(=NC(=O)c1nc(Cl)c(N)nc1N)NC1CCN(CC(=O)N2CCSCC2)CC1 [Example 4.15] — within 1.5-fold, 12 nM
- NC(=NC(=O)c1nc(Cl)c(N)nc1N)NC1CCN(CC2CCCC2)CC1 [Example 4.13] — 3.3-fold higher, 30 nM
- N=C(NC(=O)c1nc(Cl)c(N)nc1N)NC1CCN(CC(=O)O)CC1 [Example 5.1] — 30-fold higher, 266 nM
- N=C(NC(=O)c1nc(Cl)c(N)nc1N)NC1CCN(CC(=O)Nc2ccccc2)CC1 [Example 1.1] — 4.5-fold lower, 2 nM
- CCNC(=O)CN1CCC(NC(N)=NC(=O)c2nc(Cl)c(N)nc2N)CC1 [Example 1.33] — 1.8-fold lower, 5 nM
- NC(=NC(=O)c1nc(Cl)c(N)nc1N)NC1CCN(CC(=O)NCc2ccc(S(N)(=O)=O)cc2)CC1 [Example 1.26] — 3-fold lower, 3 nM
- CN(C)CC(=O)N(C)c1ccc(NC(=O)CN2CCC(NC(N)=NC(=O)c3nc(Cl)c(N)nc3N)CC2)cc1 [Example 1.7] — 9-fold lower, 1 nM
- CC(C)(C)NC(=O)CN1CCC(NC(N)=NC(=O)c2nc(Cl)c(N)nc2N)CC1 [Example 4.22] — 2.2-fold lower, 4 nM
- Cn1ccc(NC(=O)CN2CCC(NC(N)=NC(=O)c3nc(Cl)c(N)nc3N)CC2)cc1=O [Example 1.15] — 2.2-fold lower, 4 nM
